In ChEMBL document CHEMBL2034862, “Exploring the binding sites of glycogen synthase kinase 3. Identification and characterization of allosteric modulation cavities” (J Med Chem, 2011):
Calls of active or inactive are those of the source. No cut-off for these calls is given here.

How the values were obtained:
[1] = target: T1, Glycogen synthase kinase-3 beta (Homo sapiens, UniProt P49841); assay: Non-competitive inhibition of human recombinant GSK3beta using GS2 as substrate after 10 mins by Glow type luminescence analysis in presence of 1 uM ATP
Target sequence in this assay (P49841 whole entry, looked up): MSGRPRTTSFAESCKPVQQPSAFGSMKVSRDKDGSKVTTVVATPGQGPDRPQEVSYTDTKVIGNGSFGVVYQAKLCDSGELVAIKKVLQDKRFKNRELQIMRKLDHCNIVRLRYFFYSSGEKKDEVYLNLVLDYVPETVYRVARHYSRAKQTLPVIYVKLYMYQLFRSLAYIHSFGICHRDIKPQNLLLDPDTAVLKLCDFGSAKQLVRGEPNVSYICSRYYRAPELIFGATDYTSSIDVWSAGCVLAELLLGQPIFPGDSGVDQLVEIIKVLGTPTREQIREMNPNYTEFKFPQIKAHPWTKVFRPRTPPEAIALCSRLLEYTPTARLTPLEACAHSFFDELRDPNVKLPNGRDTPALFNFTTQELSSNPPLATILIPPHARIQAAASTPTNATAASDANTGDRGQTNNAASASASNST

[2] = target: T1, Glycogen synthase kinase-3 beta; assay: Inhibition of human recombinant GSK3beta incubated for 30 mins by Kinase Glo luminescent kinase assay
Target sequence in this assay (P49841 whole entry): as the sequence (P49841 whole entry, looked up) above

[3] = target: T1, Glycogen synthase kinase-3 beta; assay: Non-competitive inhibition of human recombinant GSK3beta using GS2 as substrate after 10 mins by Glow type luminescence analysis in presence of 1 to 50 uM ATP
Target sequence in this assay (P49841 whole entry, looked up): as above

[4] = target: T1, Glycogen synthase kinase-3 beta; assay: Reversible inhibition of human recombinant GSK3beta using GS2 as substrate after 10 mins by Glow type luminescence analysis
Target sequence in this assay (P49841 whole entry, looked up): as above

[5] = target: T1, Glycogen synthase kinase-3 beta; assay: Non-competitive inhibition of human recombinant GSK3beta using GS2 as substrate after 10 mins by Glow type luminescence analysis
Target sequence in this assay (P49841 whole entry, looked up): as above

- inhibition [1]: Active
- IC50 [2]: 3.01 µM
- inhibition [3]: Active
- inhibition [4]: Active
- inhibition [5]: Active
Structure (SMILES): CCCCCCCCCCCC(=O)NNC(=O)c1c(O)c2ccccc2n(CC)c1=O
